Source: article PMC6222509, “Dibasic Derivatives of Phenylcarbamic Acid against Mycobacterial Strains: Old Drugs and New Tricks?” (Molecules : A Journal of Synthetic Chemistry and Natural …, 2018)
Values after ≈ are worked out from the molar mass of the structure shown. Read-outs that look alike come from different tables or passages of the source.

Tests used:
[1] = system: M. kansasii DSM 44162 (MK DSM); assay: in vitro antimycobacterial MIC, broth dilution micromethod in Middlebrook 7H9; assay type: cell-based; conditions: Mycobacterium kansasii, DSM 44162 / DSM 7, 168 h; 7-day cultivation, 37 °C; read-out: MIC MK DSM 7-d
[2] = system: M. smegmatis ATCC 700084 (MS); assay: as above; assay type: cell-based, Mycobacterium smegmatis; conditions: Mycolicibacterium smegmatis, ATCC700084, 72 h; 3-day cultivation, 37 °C; read-out: MIC MS 3-d
[3] = system: M. marinum CAMP 5644 (MM); assay: as above; assay type: cell-based, Mycobacterium marinum; conditions: Mycobacterium marinum, 504 h; 21-day cultivation, 28 °C; read-out: MIC MM 21-d
[4] = system: Mycobacterium tuberculosis CNCTC My 331/88 (identical with H37Rv and ATCC 2794; MTv H37Rv); assay: in vitro antimycobacterial MIC, dilution micromethod in Šula's semisynthetic medium; assay type: cell-based; conditions: Mycobacterium tuberculosis
[5] = system: M. avium CNCTC My 330/80 (identical with ATCC 25291; MA 330/80); assay: as above; assay type: cell-based, Mycobacterium avium; conditions: Mycobacterium avium
[6] = system: M. tuberculosis H37Ra ATCC 25177 (MTa H37Ra); assay: in vitro antimycobacterial MIC, 96-well Middlebrook broth, alamarBlue; assay type: cell-based, Mycobacterium tuberculosis; conditions: Mycobacterium tuberculosis, 168 h, 7-day cultivation; read-out: MIC MTa H37Ra 7-d
Protocol: In vitro susceptibitity of given mycobacteria to reference drugs isoniazid (INH), ethambutol (EMB), ofloxacin (OFLX) or ciprofloxacin (CPX) was tested as well (Table 6 and Table 7).
A value of a minimum inhibitory concentration (MIC) was the lowest concentration of a tested compound, (i) which inhibited growth of MTv H37Rv, MK 235/80, MK 6509/96 and MA 330/80, respectively; (ii) at which no visible growth of MTa H37Ra, MS, MK DSM as well as MM was observed.
The molecules 1a–p were also in vitro screened against an avirulent M. tuberculosis H37Ra ATCC 25177 (MTa H37Ra), M. kansasii DSM 44162 (MK DSM), M. smegmatis ATCC 700084 (MS) and M. marinum CAMP 5644 (MM), respectively, in the Department of Infectious Diseases and Microbiology (Faculty of Veterinary Medicine, University of Veterinary and Pharmaceutical Sciences in Brno, Czech Republic).
Determination of a minimum inhibitory concentration (MIC) against MTa H37Ra. The mycobacterium was grown on Middlebrook broth (MB; MiddleBrook Pharmaceuticals, Inc., Westlake, TX, USA), supplemented with Oleic-Albumin-Dextrose-Catalase (OADC) supplement (Difco, Lawrence, KS, USA) and salicylate-derived mycobactin J (2 μg/mL; Allied Monitor Inc., Fayette, MO, USA), an iron-binding siderophore.
At log phase growth, a culture sample (10 mL) was centrifuged at 15,000 rpm/20 min using a bench top centrifuge MPW-65R (MPW Med Instruments, Warsaw, Poland). Following removal of the supernatant, a pellet was washed in fresh liquid Middlebrook 7H9GC broth (MiddleBrook Pharmaceuticals, Inc.) and re-suspended in a fresh OADC-supplemented MB (10 mL).
Turbidity was adjusted to match the McFarland standard No. 1 [87] containing approximately 3 × 10^8 Colony Forming Units (CFU) with MB broth. Further 1:20 dilution of the culture was performed in MB broth.
Susceptibility of MTa H37Ra was investigated in a 96-well plate format. In the experiments, sterile deionized water (300 µL) was added to all outer-perimeter wells of the plates to minimize evaporation of the medium in test wells during incubation. Each evaluated compound (100 µL) was incubated with MTa H37Ra (100 µL). Dilutions of each compound were prepared in triplicate and final concentrations varied from 1000 μg/mL to 8 μg/mL. All tested molecules were dissolved in DMSO (Sigma-Aldrich, Irvine, UK), and subsequent dilutions were made in supplemented MB broth. The plates were sealed with parafilm and incubated at 37 °C for 7 days.
Following incubation, 10% addition a water-soluble dye, the alamarBlue reagent (AbD Serotec, Kidlington, UK) was mixed into each well. This resaurin-based reagent served as an oxidation-reduction indicator of metabolic function and cellular health in cell viability bioassays.
Absorbance readings at 570 nm and 600 nm were taken, initially for background subtraction and after 24h re-incubation. The subtraction is necessary for strongly colored compounds, where the color may interfere with the interpretation of any color change. For non-interfering compounds, a blue color in a well was interpreted as absence of growth and pink color was scored as growth.
The minimum inhibitory concentration (MIC) was defined as the lowest concentration of a compound, at which no visible bacterial growth was observed. In other words, the MIC was the lowest concentration that prevented visual color change from blue to pink.

[7] = system: M. kansasii CNCTC My 235/80 (identical with ATCC 12478; MK 235/80); assay: in vitro antimycobacterial MIC, dilution micromethod in Šula's semisynthetic medium; assay type: cell-based, Mycobacterium kansasii; conditions: Mycobacterium kansasii
rabbit cornea = system: rabbit cornea; design: method as in PMID 8402965; conditions: 0.01 M cocaine as standard; cited from earlier work
guinea pig = system: guinea pig; design: method as in PMID 8402965; conditions: intradermal, 0.02 M procaine as standard; cited from earlier work
white mice = conditions: subcutaneous application; cited from earlier work
[8] = 336 h, 14-day cultivation, read-out: MIC MTv H37Rv 14-d
[9] = 504 h, 21-day cultivation, read-out: MIC MTv H37Rv 21-d
[10] = ATCC25291, 336 h, 14-day cultivation, read-out: MIC MA 330/80 14-d
[11] = ATCC25291, 504 h, 21-day cultivation, read-out: MIC MA 330/80 21-d
[12] = ATCC12478, 168 h, 7-day cultivation, read-out: MIC MK 235/80 7-d
[13] = ATCC12478, 336 h, 14-day cultivation, read-out: MIC MK 235/80 14-d
[14] = ATCC12478, 504 h, 21-day cultivation, read-out: MIC MK 235/80 21-d

## O=C(O)c1cn(C2CC2)c2cc(N3CCNCC3)c(F)cc2c1=O [CPX, ciprofloxacin, reference compound]
[1]
  MIC: 3 µM (≈ 0.994 µg/mL)
[2]
  MIC: 0.4 µM (≈ 0.133 µg/mL)
[3]
  MIC: 0.8 µM (≈ 0.265 µg/mL)

## CC[C@@H](CO)NCCN[C@@H](CC)CO [EMB, ethambutol, reference compound]
[4]; [8]
  MIC: 1 µM (≈ 0.204 µg/mL)
[4]; [9]
  MIC: 2 µM (≈ 0.409 µg/mL)
[5]; [10]
  MIC: 16 µM (≈ 3.27 µg/mL)
[5]; [11]
  MIC: 16 µM (≈ 3.27 µg/mL)
[5]; ATCC25291, cultivation time not given, read-out: MIC MA 330/80
  MIC: 16 µM (≈ 3.27 µg/mL)

## NNC(=O)c1ccncc1 [INH, isoniazid, reference compound]
[4]; [8]
  MIC: 0.5 µM (≈ 0.0686 µg/mL)
[4]; [9]
  MIC: 1 µM (≈ 0.137 µg/mL)
[6]
  MIC: 36.5 µM (≈ 5.01 µg/mL)
[7]; [12]
  MIC: > 250 µM
[7]; [13]
  MIC: > 250 µM
[7]; [14]
  MIC: > 250 µM
[5]; [10]
  MIC: > 250 µM
[5]; [11]
  MIC: > 250 µM
[2]
  MIC: 117 µM (≈ 16 µg/mL)
[3]
  MIC: 467 µM (≈ 64 µg/mL)

## CC1COc2c(N3CCN(C)CC3)c(F)cc3c(=O)c(C(=O)O)cn1c23 (stereo not shown) [OFLX, ofloxacin, reference compound]
[4]; [8]
  MIC: 1 µM (≈ 0.361 µg/mL)
[4]; [9]
  MIC: 2 µM (≈ 0.723 µg/mL)
[7]; [12]
  MIC: 0.5 µM (≈ 0.181 µg/mL)
[7]; [13]
  MIC: 1 µM (≈ 0.361 µg/mL)
[7]; [14]
  MIC: 1 µM (≈ 0.361 µg/mL)
[5]; [10]
  MIC: 32 µM (≈ 11.6 µg/mL)
[5]; [11]
  MIC: 62.5 µM (≈ 22.6 µg/mL)

## COC(=O)[C@H]1[C@@H](OC(=O)c2ccccc2)C[C@@H]2CC[C@H]1N2C [cocaine]
Rabbit cornea
  Us, index of relative surface local anesthetic efficiency: 1.0
Guinea pig
  Ui, index of relative infiltration local anesthetic efficiency: 3.6
White mice
  LD50: 125 mg/kg

## CCN(CC)CCOC(=O)c1ccc(N)cc1 [procaine]
Rabbit cornea
  Us, index of relative surface local anesthetic efficiency: 0.1
Guinea pig
  Ui, index of relative infiltration local anesthetic efficiency: 1.0
White mice
  LD50: 600 mg/kg
